Activity calls are given as the source filed them. The calls are words filed in the database; no cut-off is given here.
Tested on: Human immunodeficiency virus 1
Experiment: Antiviral activity against HIV1 3B infected in human MT4 cells assessed as reduction in virus-induced cytopathogenicity by MTT assay
Type: functional, organism-based
Details: Human immunodeficiency virus 1, 3B

| SMILES | EC50 [µM] |
| --- | --- |
| CCOC(=O)c1ccc(NC(=O)CSc2ncncc2-c2cccc3ccccc23)c(Cl)c1 | 4.55 |
| CCOC(=O)c1ccc(NC(=O)CSc2ncncc2-c2cccc3ccccc23)c(Br)c1 | 4.46 |
| CCOC(=O)C(C)NC(=O)c1ccc(NC(=O)CSc2ncncc2-c2cccc3ccccc23)c(Cl)c1 (configuration not stated) | 2.76 |
| O=C(CSc1ncncc1-c1cccc2ccccc12)Nc1ccc(C(=O)O)cc1Cl | 8.13 |
| O=C(CSc1ncncc1-c1cccc2ccccc12)Nc1ccccc1[N+](=O)[O-] | 0.91 |
| COC(=O)c1ccc(NC(=O)CSc2ncncc2-c2cccc3ccccc23)c(Cl)c1 | 2.84 |
| NS(=O)(=O)c1ccc(NC(=O)CSc2ncncc2-c2cccc3ccccc23)c(Br)c1 | 0.18 |
| COC(=O)c1ccc(NC(=O)CSc2ncncc2-c2cccc3ccccc23)c(Br)c1 | 2.42 |
| O=C(O)c1ccc(-n2cc(CSc3ncncc3-c3cccc4ccccc34)nn2)cc1 | > 95.9 |
| CC(C)Nc1cccnc1N1CCN(C(=O)c2cc3cc(NS(C)(=O)=O)ccc3[nH]2)CC1 [DELAVIRDINE] | 0.49 |
| COC(=O)c1ccc(NC(=O)CSc2ncncc2-c2cccc3ccccc23)c([N+](=O)[O-])c1 | 3.58 |
| O=C(CSc1ncncc1-c1cccc2ccccc12)Nc1ccc(C(=O)NO)cc1Cl | 0.63 |
| O=C1Nc2ccc(Cl)cc2[C@@](C#CC2CC2)(C(F)(F)F)O1 [EFAVIRENZ] | 0.0053 |
| COc1ccc(Cn2cc(CSc3ncncc3-c3cccc4ccccc34)nn2)cc1 | > 31.1 |
| CONC(=O)c1ccc(NC(=O)CSc2ncncc2-c2cccc3ccccc23)c(Cl)c1 | 0.75 |
| CCOC(=O)CNC(=O)c1ccc(NC(=O)CSc2ncncc2-c2cccc3ccccc23)c(Cl)c1 | 0.15 |
| Brc1ccccc1Cn1cc(CSc2ncncc2-c2cccc3ccccc23)nn1 | > 39.4 |
| O=C(CSc1ncncc1-c1cccc2ccccc12)Nc1ccc(C(=O)O)nc1Cl | 24.2 |

Tested on: not listed separately
Experiment: Selectivity index, ratio of CC50 for human MT4 cells to EC50 for HIV1 3B infected in human MT4 cells
Type: toxicity, cell-based
Details: read-out: Ratio CC50/EC50

| SMILES | selectivity ratio |
| --- | --- |
| CCOC(=O)c1ccc(NC(=O)CSc2ncncc2-c2cccc3ccccc23)c(Cl)c1 | 43 |
| CCOC(=O)c1ccc(NC(=O)CSc2ncncc2-c2cccc3ccccc23)c(Br)c1 | 47 |
| CCOC(=O)C(C)NC(=O)c1ccc(NC(=O)CSc2ncncc2-c2cccc3ccccc23)c(Cl)c1 (configuration not stated) | 13 |
| O=C(CSc1ncncc1-c1cccc2ccccc12)Nc1ccc(C(=O)O)cc1Cl | 13 |
| O=C(CSc1ncncc1-c1cccc2ccccc12)Nc1ccccc1[N+](=O)[O-] | 25 |
| COC(=O)c1ccc(NC(=O)CSc2ncncc2-c2cccc3ccccc23)c(Cl)c1 | 54 |
| NS(=O)(=O)c1ccc(NC(=O)CSc2nncnc2-c2cccc3ccccc23)c(Br)c1 | 1290 |
| NS(=O)(=O)c1ccc(NC(=O)CSc2ncncc2-c2cccc3ccccc23)c(Br)c1 | 132 |
| COC(=O)c1ccc(NC(=O)CSc2ncncc2-c2cccc3ccccc23)c(Br)c1 | 69 |
| O=C(O)c1ccc(-n2cc(CSc3ncncc3-c3cccc4ccccc34)nn2)cc1 | < 1 |
| CC(C)Nc1cccnc1N1CCN(C(=O)c2cc3cc(NS(C)(=O)=O)ccc3[nH]2)CC1 [DELAVIRDINE] | > 89 |
| COC(=O)c1ccc(NC(=O)CSc2ncncc2-c2cccc3ccccc23)c([N+](=O)[O-])c1 | ≥ 55 |
| O=C(CSc1nnccc1-c1cccc2ccccc12)Nc1ccccc1[N+](=O)[O-] | 2150 |
| O=C(CSc1ncncc1-c1cccc2ccccc12)Nc1ccc(C(=O)NO)cc1Cl | 8 |
| O=C1Nc2ccc(Cl)cc2[C@@](C#CC2CC2)(C(F)(F)F)O1 [EFAVIRENZ] | > 1180 |
| COc1ccc(Cn2cc(CSc3ncncc3-c3cccc4ccccc34)nn2)cc1 | < 1 |
| CONC(=O)c1ccc(NC(=O)CSc2ncncc2-c2cccc3ccccc23)c(Cl)c1 | 175 |
| CCOC(=O)CNC(=O)c1ccc(NC(=O)CSc2ncncc2-c2cccc3ccccc23)c(Cl)c1 | 684 |
| Brc1ccccc1Cn1cc(CSc2ncncc2-c2cccc3ccccc23)nn1 | < 1 |
| O=C(CSc1ncncc1-c1cccc2ccccc12)Nc1ccc(C(=O)O)nc1Cl | 5 |
| O=C(CSc1nccnc1-c1ccccc1Cl)Nc1ccccc1[N+](=O)[O-] | 23 |

Tested on: Human immunodeficiency virus 1
Experiment: Antiviral activity against HIV1 RES056 expressing reverse transcriptase K103N/Y181C double mutant infected in human MT4 cells assessed as reduction in virus-induced cytopathogenicity by MTT assay
Type: functional, organism-based
Details: Human immunodeficiency virus 1, RES056, MT4

| SMILES | EC50 [µM] |
| --- | --- |
| CCOC(=O)c1ccc(NC(=O)CSc2ncncc2-c2cccc3ccccc23)c(Cl)c1 | > 195 |
| CCOC(=O)c1ccc(NC(=O)CSc2ncncc2-c2cccc3ccccc23)c(Br)c1 | > 211 |
| CCOC(=O)C(C)NC(=O)c1ccc(NC(=O)CSc2ncncc2-c2cccc3ccccc23)c(Cl)c1 (configuration not stated) | > 35.6 |
| O=C(CSc1ncncc1-c1cccc2ccccc12)Nc1ccc(C(=O)O)cc1Cl | > 108 |
| O=C(CSc1ncncc1-c1cccc2ccccc12)Nc1ccccc1[N+](=O)[O-] | > 22.5 |
| COC(=O)c1ccc(NC(=O)CSc2ncncc2-c2cccc3ccccc23)c(Cl)c1 | > 154 |
| NS(=O)(=O)c1ccc(NC(=O)CSc2ncncc2-c2cccc3ccccc23)c(Br)c1 | 3.9 |
| COC(=O)c1ccc(NC(=O)CSc2ncncc2-c2cccc3ccccc23)c(Br)c1 | > 168 |
| O=C(O)c1ccc(-n2cc(CSc3ncncc3-c3cccc4ccccc34)nn2)cc1 | > 95.9 |
| CC(C)Nc1cccnc1N1CCN(C(=O)c2cc3cc(NS(C)(=O)=O)ccc3[nH]2)CC1 [DELAVIRDINE] | > 43.8 |
| COC(=O)c1ccc(NC(=O)CSc2ncncc2-c2cccc3ccccc23)c([N+](=O)[O-])c1 | > 196 |
| Cc1ccnc2c1NC(=O)c1cccnc1N2C1CC1 [NEVIRAPINE] | > 14.4 |
| O=C(CSc1ncncc1-c1cccc2ccccc12)Nc1ccc(C(=O)NO)cc1Cl | > 4.8 |
| O=C1Nc2ccc(Cl)cc2[C@@](C#CC2CC2)(C(F)(F)F)O1 [EFAVIRENZ] | 0.23 |
| COc1ccc(Cn2cc(CSc3ncncc3-c3cccc4ccccc34)nn2)cc1 | > 31.2 |
| CONC(=O)c1ccc(NC(=O)CSc2ncncc2-c2cccc3ccccc23)c(Cl)c1 | > 131 |
| CCOC(=O)CNC(=O)c1ccc(NC(=O)CSc2ncncc2-c2cccc3ccccc23)c(Cl)c1 | 30.6 |
| Brc1ccccc1Cn1cc(CSc2ncncc2-c2cccc3ccccc23)nn1 | > 39.4 |
| O=C(CSc1ncncc1-c1cccc2ccccc12)Nc1ccc(C(=O)O)nc1Cl | > 127 |

Tested on: not listed separately
Experiment: Selectivity index, ratio of CC50 for human MT4 cells to EC50 for HIV1 RES056 expressing reverse transcriptase K103N/Y181C double mutant infected in human MT4 cells
Type: toxicity, cell-based
Details: read-out: Ratio CC50/EC50

| SMILES | selectivity ratio |
| --- | --- |
| CCOC(=O)c1ccc(NC(=O)CSc2ncncc2-c2cccc3ccccc23)c(Cl)c1 | < 1 |
| CCOC(=O)c1ccc(NC(=O)CSc2ncncc2-c2cccc3ccccc23)c(Br)c1 | < 1 |
| CCOC(=O)C(C)NC(=O)c1ccc(NC(=O)CSc2ncncc2-c2cccc3ccccc23)c(Cl)c1 (configuration not stated) | < 1 |
| O=C(CSc1ncncc1-c1cccc2ccccc12)Nc1ccc(C(=O)O)cc1Cl | < 1 |
| O=C(CSc1ncncc1-c1cccc2ccccc12)Nc1ccccc1[N+](=O)[O-] | < 1 |
| COC(=O)c1ccc(NC(=O)CSc2ncncc2-c2cccc3ccccc23)c(Cl)c1 | < 1 |
| NS(=O)(=O)c1ccc(NC(=O)CSc2ncncc2-c2cccc3ccccc23)c(Br)c1 | 6 |
| COC(=O)c1ccc(NC(=O)CSc2ncncc2-c2cccc3ccccc23)c(Br)c1 | < 1 |
| O=C(O)c1ccc(-n2cc(CSc3ncncc3-c3cccc4ccccc34)nn2)cc1 | < 1 |
| CC(C)Nc1cccnc1N1CCN(C(=O)c2cc3cc(NS(C)(=O)=O)ccc3[nH]2)CC1 [DELAVIRDINE] | 1 |
| COC(=O)c1ccc(NC(=O)CSc2ncncc2-c2cccc3ccccc23)c([N+](=O)[O-])c1 | 1 |
| O=C(CSc1ncncc1-c1cccc2ccccc12)Nc1ccc(C(=O)NO)cc1Cl | < 1 |
| O=C1Nc2ccc(Cl)cc2[C@@](C#CC2CC2)(C(F)(F)F)O1 [EFAVIRENZ] | > 27 |
| COc1ccc(Cn2cc(CSc3ncncc3-c3cccc4ccccc34)nn2)cc1 | < 1 |
| CONC(=O)c1ccc(NC(=O)CSc2ncncc2-c2cccc3ccccc23)c(Cl)c1 | < 1 |
| CCOC(=O)CNC(=O)c1ccc(NC(=O)CSc2ncncc2-c2cccc3ccccc23)c(Cl)c1 | 3 |
| Brc1ccccc1Cn1cc(CSc2ncncc2-c2cccc3ccccc23)nn1 | < 1 |
| O=C(CSc1ncncc1-c1cccc2ccccc12)Nc1ccc(C(=O)O)nc1Cl | < 1 |

Tested on: not listed separately
Experiment: Cytotoxicity against human MT4 cells by MTT assay
Type: cell-based
Details: not given

| SMILES | CC50 [µM] |
| --- | --- |
| CCOC(=O)c1ccc(NC(=O)CSc2ncncc2-c2cccc3ccccc23)c(Cl)c1 | 195 |
| CCOC(=O)c1ccc(NC(=O)CSc2ncncc2-c2cccc3ccccc23)c(Br)c1 | 211 |
| CCOC(=O)C(C)NC(=O)c1ccc(NC(=O)CSc2ncncc2-c2cccc3ccccc23)c(Cl)c1 (configuration not stated) | 35.6 |
| O=C(CSc1ncncc1-c1cccc2ccccc12)Nc1ccc(C(=O)O)cc1Cl | 108 |
| O=C(CSc1ncncc1-c1cccc2ccccc12)Nc1ccccc1[N+](=O)[O-] | 22.5 |
| COC(=O)c1ccc(NC(=O)CSc2ncncc2-c2cccc3ccccc23)c(Cl)c1 | 154 |
| NS(=O)(=O)c1ccc(NC(=O)CSc2ncncc2-c2cccc3ccccc23)c(Br)c1 | 24.1 |
| COC(=O)c1ccc(NC(=O)CSc2ncncc2-c2cccc3ccccc23)c(Br)c1 | 168 |
| O=C(O)c1ccc(-n2cc(CSc3ncncc3-c3cccc4ccccc34)nn2)cc1 | 95.9 |
| CC(C)Nc1cccnc1N1CCN(C(=O)c2cc3cc(NS(C)(=O)=O)ccc3[nH]2)CC1 [DELAVIRDINE] | > 43.8 |
| COC(=O)c1ccc(NC(=O)CSc2ncncc2-c2cccc3ccccc23)c([N+](=O)[O-])c1 | ≥ 196 |
| Cc1ccnc2c1NC(=O)c1cccnc1N2C1CC1 [NEVIRAPINE] | > 14.4 |
| O=C(CSc1ncncc1-c1cccc2ccccc12)Nc1ccc(C(=O)NO)cc1Cl | 4.8 |
| O=C1Nc2ccc(Cl)cc2[C@@](C#CC2CC2)(C(F)(F)F)O1 [EFAVIRENZ] | > 6.3 |
| COc1ccc(Cn2cc(CSc3ncncc3-c3cccc4ccccc34)nn2)cc1 | 31.2 |
| CONC(=O)c1ccc(NC(=O)CSc2ncncc2-c2cccc3ccccc23)c(Cl)c1 | 131 |
| CCOC(=O)CNC(=O)c1ccc(NC(=O)CSc2ncncc2-c2cccc3ccccc23)c(Cl)c1 | 105 |
| Brc1ccccc1Cn1cc(CSc2ncncc2-c2cccc3ccccc23)nn1 | 39.4 |
| O=C(CSc1ncncc1-c1cccc2ccccc12)Nc1ccc(C(=O)O)nc1Cl | 127 |

Biological target: Human immunodeficiency virus type 1 reverse transcriptase (Human immunodeficiency virus 1, UniProt Q72547)
Experiment: Inhibition of HIV1 reverse transcriptase assessed as inhibition of biotin-dUTP incorporation using hybrid poly (A).oligo (dT)15 template primer incubated for 1 hr at 37 degC by ELISA method
Details: not given

| SMILES | IC50 [µM] |
| --- | --- |
| CCOC(=O)CNC(=O)c1ccc(NC(=O)CSc2ncncc2-c2cccc3ccccc23)c(Cl)c1 | 1.31 |

Tested on: Human immunodeficiency virus 2
Experiment: Antiviral activity against HIV2 ROD infected in human MT4 cells assessed as reduction in virus-induced cytopathogenicity by MTT assay
Type: functional, organism-based
Details: ISOLATE ROD

| SMILES | inhibition |
| --- | --- |
| CCOC(=O)c1ccc(NC(=O)CSc2ncncc2-c2cccc3ccccc23)c(Cl)c1 | inactive |
| CCOC(=O)c1ccc(NC(=O)CSc2ncncc2-c2cccc3ccccc23)c(Br)c1 | inactive |
| CCOC(=O)C(C)NC(=O)c1ccc(NC(=O)CSc2ncncc2-c2cccc3ccccc23)c(Cl)c1 (configuration not stated) | inactive |
| O=C(CSc1ncncc1-c1cccc2ccccc12)Nc1ccc(C(=O)O)cc1Cl | inactive |
| O=C(CSc1ncncc1-c1cccc2ccccc12)Nc1ccccc1[N+](=O)[O-] | inactive |
| COC(=O)c1ccc(NC(=O)CSc2ncncc2-c2cccc3ccccc23)c(Cl)c1 | inactive |
| NS(=O)(=O)c1ccc(NC(=O)CSc2ncncc2-c2cccc3ccccc23)c(Br)c1 | inactive |
| COC(=O)c1ccc(NC(=O)CSc2ncncc2-c2cccc3ccccc23)c(Br)c1 | inactive |
| O=C(O)c1ccc(-n2cc(CSc3ncncc3-c3cccc4ccccc34)nn2)cc1 | inactive |
| COC(=O)c1ccc(NC(=O)CSc2ncncc2-c2cccc3ccccc23)c([N+](=O)[O-])c1 | inactive |
| O=C(CSc1ncncc1-c1cccc2ccccc12)Nc1ccc(C(=O)NO)cc1Cl | inactive |
| COc1ccc(Cn2cc(CSc3ncncc3-c3cccc4ccccc34)nn2)cc1 | inactive |
| CONC(=O)c1ccc(NC(=O)CSc2ncncc2-c2cccc3ccccc23)c(Cl)c1 | inactive |
| CCOC(=O)CNC(=O)c1ccc(NC(=O)CSc2ncncc2-c2cccc3ccccc23)c(Cl)c1 | inactive |
| Brc1ccccc1Cn1cc(CSc2ncncc2-c2cccc3ccccc23)nn1 | inactive |
| O=C(CSc1ncncc1-c1cccc2ccccc12)Nc1ccc(C(=O)O)nc1Cl | inactive |

From ChEMBL document CHEMBL3352799, “Arylazolyl(azinyl)thioacetanilides. Part 16: Structure-based bioisosterism design, synthesis and biological evaluation of novel pyrimidinylthioacetanilides as potent HIV-1 inhibitors” (Bioorg Med Chem, 2014)
